In brackets after ≈: the same amount, converted by molar mass.
Assays:
[1] = Solubility measurements in PBS (pH 7.4), filtration, HPLC-UV; format: physicochemical; details: PBS (pH 7.4) with 1% DMSO, aqueous buffer, kinetic from dmso stock, PBS pH 7.4, 100 μM test substance, room temperature
Experimental: The solubility of each substance was assessed using MultiScreen® HTS 96-well filtration system (filter; polycarbonate, pore size; 0.4 μm, Millipore). DMSO stock solutions of each test substance (10 mM) were prepared to initiate the assay. The equilibration was performed in PBS (pH 7.4) containing 100 μM of a test substance and 1% DMSO, for 24 hours at room temperature with shaking The concentrations of test substances in each filtrate were determined by HPLC-UV.
HPLC conditions were following:
Waters ACQUITY UPLC H class instrument.
Eluent A: 10 mM aqueous Ammonium formate
Eluent B: 0.1 volume % formic acid in acetonitrile
Flow: 1 mL/min, UV: 316 nm

[2] = target: T1, VEGF receptor KDR (VEGFR2) (Homo sapiens, UniProt P35968); assay: In vitro receptor tyrosine kinase assay (VEGF receptor KDR), DELFIA; format: biochemical; details: recombinant GST-VEGFR2 (806-1356), ATP 0.6 uM, enzyme 5 nM; read-out: VEGFR_IC50_UM
T1 construct: made in house; host or cells: Sf9 cells (Spodoptera frugiperda), baculovirus
From the text: In Vitro Receptor Tyrosine Kinase Assay (VEGF receptor KDR)
This test measures the ability of compounds to inhibit the enzymatic activity of recombinant human VEGF receptor enzymatic activity.
A 1.6-kb cDNA corresponding to the catalytic domain of VEGFR2 (KDR) (Genbank accession number AF035121 amino acid 806 to 1356) is cloned into the Pst I site of the pDEST20 Gateway vector (Invitrogen) for the production of a GST-tagged version of that enzyme. This construct is used to generate recombinant baculovirus using the Bac-to-Bac™ system according to the manufacturer's instructions (Invitrogen).
The GST-VEGFR2806-1356 protein is expressed in Sf9 cells (Spodoptera frugiperda) upon infection with recombinant baculovirus construct. Briefly, Sf9 cells grown in suspension and maintained in serum-free medium (Sf900 II supplemented with gentamycin) at a cell density of about 2×10^6 cells/ml are infected with the above-mentioned viruses at a multiplicity of infection (MOI) of 0.1 during 72 hours at 27° C. with agitation at 120 rpm on a rotary shaker. Infected cells are harvested by centrifugation at 398g for 15 min. Cell pellets are frozen at −80° C. until purification is performed.
All steps described in cell extraction and purification are performed at 4° C. Frozen Sf9 cell pellets infected with the GST-VEGFR2806-1356 recombinant baculovirus are thawed and gently resuspended in Buffer A (PBS pH 7.3 supplemented with 1 μg/ml pepstatin, 2 μg/ml Aprotinin and leupeptin, 50 μg/ml PMSF, 50 μg/ml TLCK and 10 μM E64 and 0.5 mM DTT) using 3 ml of buffer per gram of cells. Suspension is Dounce homogenized and 1% Triton X-100 is added to the homogenate after which it is centrifuged at 22500 g, 30 min., 4 °C. The supernatant (cell extract) is used as starting material for purification of GST-VEGFR2806-1356.
The supernatant is loaded onto a GST-agarose column (Sigma) equilibrated with PBS pH 7.3. Following a four column volume (CV) wash with PBS pH 7.3+1% Triton X-100 and 4 CV wash with buffer B (50mM Tris pH 8.0, 20% glycerol and 100mM NaCl), bound proteins are step eluted with 5 CV of buffer B supplemented with 5 mM DTT and 15 mM glutathion. GST-VEGFR2806-1356 enriched fractions from this chromatography step are pooled based on U.V. trace i.e. fractions with high 0.D.280. Final GST-VEGFR2806-1356 protein preparations concentrations are about 0.7 mg/ml with purity approximating 70%. Purified GST-VEGFR2806-1356 protein stocks are aliquoted and frozen at −80° C. prior to use in enzymatic assay.
Inhibition of VEGFR/KDR is measured in a DELFIATM assay (Perkin Elmer). The substrate poly(Glu4, Tyr) is immobilized onto black high-binding polystyrene 96-well plates. The coated plates are washed and stored at 4° C. During the assay, the enzyme is pre-incubated with inhibitor and Mg-ATP on ice in polypropylene 96-well plates for 4 minutes, and then transferred to the coated plates. The subsequent kinase reaction takes place at 30° C. for 10-30 minutes. ATP concentrations in the assay are 0.6 uM for VEGFR/KDR (2× the Km). Enzyme concentration is 5 nM. After incubation, the kinase reactions are quenched with EDTA and the plates are washed. Phosphorylated product is detected by incubation with Europium-labeled anti-phosphotyrosine MoAb. After washing the plates, bound MoAb is detected by time-resolved fluorescence in a Gemini SpectraMax reader (Molecular Devices). Compounds are evaluated over a range of concentrations, and IC50 values (concentration of compounds giving 50% inhibition of enzymatic activity) are determined.

T1 sequence (P35968 806-1356): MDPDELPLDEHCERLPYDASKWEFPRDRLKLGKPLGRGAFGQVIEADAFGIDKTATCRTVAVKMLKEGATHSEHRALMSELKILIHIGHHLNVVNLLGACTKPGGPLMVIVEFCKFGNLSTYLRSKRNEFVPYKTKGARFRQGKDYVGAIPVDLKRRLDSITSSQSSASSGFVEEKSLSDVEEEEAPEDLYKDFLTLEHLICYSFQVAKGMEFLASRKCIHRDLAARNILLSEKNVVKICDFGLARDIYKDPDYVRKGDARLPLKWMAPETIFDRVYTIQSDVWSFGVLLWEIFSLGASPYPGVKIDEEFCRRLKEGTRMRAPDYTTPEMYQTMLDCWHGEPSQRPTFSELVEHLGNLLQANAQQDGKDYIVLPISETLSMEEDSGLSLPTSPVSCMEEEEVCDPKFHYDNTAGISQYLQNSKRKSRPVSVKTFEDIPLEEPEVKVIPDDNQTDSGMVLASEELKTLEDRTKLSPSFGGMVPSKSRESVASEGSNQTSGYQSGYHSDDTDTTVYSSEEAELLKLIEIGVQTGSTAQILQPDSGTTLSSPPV

| SMILES | solubility at 24 h [1] [µM] | IC50 [2] [nM] |
| --- | --- | --- |
| C[C@H](O)CN1CCN(Cc2ccc(-c3cc4nccc(Oc5ccc(NC(=O)NC6CC6)cc5F)c4s3)nc2)CC1 [Compound 30] | 6.46 (≈ 3.73 µg/mL) | 4 |
| CN(CCO)C(=O)[C@@H]1CCCN(Cc2ccc(-c3cc4nccc(Oc5ccc(NC(=O)NC6CC6)cc5F)c4s3)nc2)C1 [Compound 12, (R)-1-((6-(7-(4-(3-Cyclopropylureido)-2-fluorophenoxy)thieno[3,2-b]pyridin-2-yl)pyridin-3-yl)methyl)-N-(2-hydroxyethyl)-N-methylpiperidine-3-carboxamide] | – | 6 |
| CC(=O)OCC(=O)OCC(=O)N1CCN(Cc2ccc(-c3cc4nccc(Oc5ccc(NC(=O)NC6CC6)cc5F)c4s3)nc2)CC1 [Compound 34, 2-(4-((6-(7-(4-(3-Cyclopropylureido)-2-fluorophenoxy)thieno[3,2-b]pyridin-2-yl)pyridin-3-yl)methyl)piperazin-1-yl)-2-oxoethyl 2-acetoxyacetate] | – | 5 |
| O=C(Nc1ccc(Oc2ccnc3cc(-c4ccc(CN5CCCC(C(=O)N6CC[C@H](O)C6)C5)cn4)sc23)c(F)c1)NC1CC1 (stereo partly drawn) [Compound 8, 1-Cyclopropyl-3-(3-fluoro-4-(2-(5-((3-((S)-3-hydroxypyrrolidine-1-carbonyl)piperidin-1-yl)methyl)pyridin-2-yl)thieno[3,2-b]pyridin-7-yloxy)phenyl)urea] | – | 3 |
| CNCC(=O)N1CCN(Cc2ccc(-c3cc4nccc(Oc5ccc(NC(=O)NC6CC6)cc5F)c4s3)nc2)CC1 [Compound 28, 1-Cyclopropyl-3-(3-fluoro-4-(2-(5-((4-(2-(methylamino)acetyl)piperazin-1-yl)methyl)pyridin-2-yl)thieno[3,2-b]pyridin-7-yloxy)phenyl)urea] | – | 5 |

Next, values leading:

| solubility at 24 h [1] [µM] | IC50 [2] [nM] | SMILES |
| --- | --- | --- |
| 1.19 (≈ 0.72 µg/mL) | 1 | CC(C)(O)C(=O)N1CCN(Cc2ccc(-c3cc4nccc(Oc5ccc(NC(=O)NC6CC6)cc5F)c4s3)nc2)CC1 [Compound 35-A, 1-Cyclopropyl-3-(3-fluoro-4-(2-(5-((4-(2-hydroxy-2-methylpropanoyl)piperazin-1-yl)methyl)pyridin-2-yl)thieno[3,2-b]pyridin-7-yloxy)phenyl)urea] |
| – | 19 | CCCC(=O)OCC(=O)N1CCN(Cc2ccc(-c3cc4nccc(Oc5ccc(NC(=O)NC6CC6)cc5F)c4s3)nc2)CC1 [Compound 79, 2-(4-((6-(7-(4-(3-Cyclopropylureido)-2-fluorophenoxy)thieno[3,2-b]pyridin-2-yl)pyridin-3-yl)methyl)piperazin-1-yl)-2-oxoethyl butyrate] |
| – | 7 | C[C@@H]1CN(Cc2ccc(-c3cc4nccc(Oc5ccc(NC(=O)NC6CC6)cc5F)c4s3)nc2)CCN1C(=O)CO [Compound 33] |
